Test results published in patent US8895504B2, “Amylin derivatives” (priority 2008, dated 2014).
*1 amine or outer side, *2 acyl side, *3 side chain or, on linkers, in order; H or OH if unused. Where a SMILES comes first, the peptide text is derived from it. Bridges are numbered along the chain shown (N, C = ends). The star is where a group is joined. C20 diacid = O=C(O)CCCCCCCCCCCCCCCCCCC(=O)*; γGlu = O=C(O)[C@H](CCC(=O)[*:2])N[*:1]; AEEA = NCCOCCOCC(=O)O

Key:
[1] = biological target: T1, Amylin 3(a) receptor (human calcitonin receptor (CTa) and RAMP-3) (Homo sapiens, UniProt O60896+P30988); assay: Luciferase assay (III), BHK Amylin 3(a)//CRE-luc cells; format: cell-based; settings: BHK cells with Amylin 3(a) receptor and CRE luciferase reporter, 4 hours incubation; read-out: Potency Luciferase
T1 construct: expressed in transfected cells; host or cells: BHK570 cells, stably transfected with a CRE-luciferase reporter
How it was run: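 BHK570 cells stably expressing CTa, RAMP-3 and a CRE-luciferase reporter, seeded at about 20,000 cells/well and grown overnight. Cells were exposed to standard or sample for 4 h at 37° C in phenol red-free DMEM with 10% FBS and 10 mM Hepes, pH 7,4. Luminescence was read after 30 min LucLite at room temperature.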

[2] = Assay (V) PK - determination of T½ in mini-pig; format: in vivo; settings: minipig, sc; terminal plasma half-life, subcutaneous, approx 2 nmol/kg, male Göttingen mini-pigs
Experimental: Assay (V) PK—Determination OF T½ in Mini-Pig
T½ is the terminal half-life=ln 2/λz of a compound in plasma. λz is the first order rate constant associated with the terminal (log-linear) portion of the plasma concentration-time curve and is estimated by linear regression of time vs. log concentration.
T½ values of the amylin analogues of the invention is determined by pharmacokinetic studies in male Göttingen mini-pigs from Ellegaard Göttingen Minipigs ApS and the principles of laboratory animal care are followed.
An acclimatization period of approximately 6-10 days was allowed before the animals entered the study. At start of the acclimatization period the mini-pigs were about 5 to 12 months old and in the weight range of 7-35 kg. The mini-pigs had two central venous catheters inserted which were used for blood sampling.
The studies were conducted in an animal room which was illuminated to give a cycle of approx 12 hours light and 12 hours darkness. The animals were housed individually.
The animals had free access to domestic quality drinking water during the study, but were typically fasted from overnight before dosing until approx 6-12 hours after dosing. The animals were weighed on arrival and on the days of dosing.
In the present studies the test substances were administered subcutaneously in approx 2 nmol/kg dose. The animals received a single subcutaneous injection. The subcutaneous injection was given on the right side of the neck, approximately 5-7 cm from the ear and 7-9 cm from the middle of the neck. The injections were given with a stopper on the needle, allowing approx 0.5 cm of the needle to be introduced. Each test substance was given to typically three but in some cases two or four animals.
A full plasma concentration-time profile, employing 12-16 sampling points, was obtained from each animal. In example blood samples were collected according to the following schedule:
After subcutaneous administration:
Predose (0), 0.5, 1, 2, 4, 6, 8, 12, 24, 48, 72, 96, 120, 168 and 240 hours after injection. In some cases also additional blood samples up to 288 hours post injection were taken.
At each sampling time, 0.5 to 2 ml of blood was drawn from each animal. The blood samples were taken via the central venous catheter.
The blood samples were collected into EDTA test tubes (i.e. Sarstedt Micro tube 1.3 mL K3E). Blood samples were kept on ice for max 20 min. before centrifugation. Plasma was separated using centrifugation (i.e. at 4° C., 10 min., 1500 G) and was immediately transferred to Micronic tubes. Approximately 200 μl plasma was transferred to each Micronic tube. The plasma was stored at −20° C. until assayed. The plasma samples were assayed for the content of amylin using an ELISA assay.
The plasma concentration-time profiles were analysed by a non-compartmental pharmacokinetic analysis (NCA) using WinNonlin Professional 5.0 (Pharsight Inc., Mountain View, Calif., USA). NCA was performed using the individual plasma concentration-time profiles from each animal. T½ is the terminal half-life=ln 2/λz and was determined from λz, the first order rate constant associated with the terminal (log-linear) portion of the curve, estimated by linear regression of time vs. log concentration.
ELISA Plasma Assay for Amylin Quantification
The human amylin ELISA is a monoclonal antibody-based sandwich immunoassay for determining amylin levels in human plasma. The capture antibody recognizes human amylin, amylin acid (deamidated amylin), a 1-20 fragment of amylin, but not reduced amylin.
The detection antibody binds to reduced or unreduced human amylin but not amylin acid and is complexed with streptavidin-alkaline phosphatase. The substrate, 4-methylumbelliferyl phosphate, is applied to the completed sandwich and the fluorescent signal, monitored at 355 nm/460 nm, is proportional to the amount of amylin present in the sample.

T1 sequence (O60896 24-148): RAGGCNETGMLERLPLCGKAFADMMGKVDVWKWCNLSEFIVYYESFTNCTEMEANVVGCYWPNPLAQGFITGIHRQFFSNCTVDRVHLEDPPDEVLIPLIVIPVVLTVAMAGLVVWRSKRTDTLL
T1 sequence (P30988 25-474): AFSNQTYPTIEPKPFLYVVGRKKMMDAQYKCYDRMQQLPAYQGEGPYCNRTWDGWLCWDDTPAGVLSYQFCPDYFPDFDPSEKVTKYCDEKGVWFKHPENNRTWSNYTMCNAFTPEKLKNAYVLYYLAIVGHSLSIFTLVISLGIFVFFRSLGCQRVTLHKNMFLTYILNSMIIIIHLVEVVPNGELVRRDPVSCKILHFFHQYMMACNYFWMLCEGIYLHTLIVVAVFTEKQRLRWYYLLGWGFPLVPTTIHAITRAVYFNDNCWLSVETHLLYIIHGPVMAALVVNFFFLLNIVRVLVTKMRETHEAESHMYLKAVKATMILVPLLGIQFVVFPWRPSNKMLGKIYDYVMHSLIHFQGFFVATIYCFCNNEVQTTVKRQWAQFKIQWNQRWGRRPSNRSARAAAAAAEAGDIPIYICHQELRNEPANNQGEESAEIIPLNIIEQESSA

SMILES | EC50 [1] [nM] | half-life [2] [h]
CC[C@H](C)[C@H](NC(=O)[C@@H]1CCCN1C(=O)CNC(=O)[C@H](Cc1ccccc1)NC(=O)[C@H](CC(N)=O)NC(=O)[C@H](CC(N)=O)NC(=O)[C@H](CO)NC(=O)[C@H](CO)NC(=O)[C@H](Cc1c[nH]cn1)NC(=O)[C@H](Cc1c[nH]cn1)NC(=O)[C@H](CC(C)C)NC(=O)[C@H](Cc1ccccc1)NC(=O)[C@H](CC(N)=O)NC(=O)[C@H](C)NC(=O)[C@H](CC(C)C)NC(=O)[C@H](CCCNC(=N)N)NC(=O)[C@H](CCC(N)=O)NC(=O)[C@@H](NC(=O)[C@H](C)NC(=O)[C@@H]1CSSC[C@H](NC(=O)[C@H](CCCNC(=N)N)NC(=O)[C@H](Cc2c[nH]cn2)NC(=O)[C@H](Cc2c[nH]cn2)NC(=O)COCCOCCNC(=O)CC[C@H](NC(=O)CCCCCCCCCCCCCCCCCCC(=O)O)C(=O)O)C(=O)N[C@@H](CC(N)=O)C(=O)N[C@@H]([C@@H](C)O)C(=O)N[C@@H](C)C(=O)N[C@@H]([C@@H](C)O)C(=O)N1)[C@@H](C)O)C(=O)N[C@@H](CC(C)C)C(=O)N1CCC[C@H]1C(=O)N1CCC[C@H]1C(=O)N[C@H](C(=O)N[C@@H](CC(N)=O)C(=O)N[C@H](C(=O)NCC(=O)N[C@@H](CO)C(=O)N[C@@H](CC(N)=O)C(=O)N[C@H](C(=O)N[C@@H](Cc1ccc(O)cc1)C(N)=O)[C@@H](C)O)C(C)C)[C@@H](C)O [Example 56, N-alpha-[2-(2-{2-[4-(S)-Carboxy-4-(19-carboxynonadecanoylamino)butyrylamino]ethoxy}ethoxy)acetyl]-His-His-[Arg1,His17]-pramlintide] ({C20 diacid-γGlu-AEEA}-HHRCNTATCATQRLANFLHHSSNNFGPILPPTNVGSNTY-NH2; disulfide 4-9) | 0.09 | 31
CC[C@H](C)[C@H](NC(=O)[C@@H]1CCCN1C(=O)CNC(=O)[C@H](Cc1ccccc1)NC(=O)[C@H](CC(N)=O)NC(=O)[C@H](CC(N)=O)NC(=O)[C@H](CO)NC(=O)[C@H](CO)NC(=O)[C@H](Cc1c[nH]cn1)NC(=O)[C@H](Cc1c[nH]cn1)NC(=O)[C@H](CC(C)C)NC(=O)[C@H](Cc1ccccc1)NC(=O)[C@H](CC(N)=O)NC(=O)[C@H](C)NC(=O)[C@H](CC(C)C)NC(=O)[C@H](CCCNC(=N)N)NC(=O)[C@H](CCC(N)=O)NC(=O)[C@@H](NC(=O)[C@H](C)NC(=O)[C@@H]1CSSC[C@H](NC(=O)[C@H](CCCCN)NC(=O)[C@H](CCCNC(=N)N)NC(=O)[C@H](Cc2c[nH]cn2)NC(=O)CC[C@H](NC(=O)CCCCCCCCCCCCCCCCCCC(=O)O)C(=O)O)C(=O)N[C@@H](CC(N)=O)C(=O)N[C@@H]([C@@H](C)O)C(=O)N[C@@H](C)C(=O)N[C@@H]([C@@H](C)O)C(=O)N1)[C@@H](C)O)C(=O)N[C@@H](CC(C)C)C(=O)N1CCC[C@H]1C(=O)N1CCC[C@H]1C(=O)N[C@H](C(=O)N[C@@H](CC(N)=O)C(=O)N[C@H](C(=O)NCC(=O)N[C@@H](CO)C(=O)N[C@@H](CC(N)=O)C(=O)N[C@H](C(=O)N[C@@H](Cc1ccc(O)cc1)C(N)=O)[C@@H](C)O)C(C)C)[C@@H](C)O [Example 40, N-alpha-[(S)-4-Carboxy-4-(19-carboxynonadecanoylamino)butyryl]-His-Arg-[His17]-pramlintide] ({C20 diacid-γGlu}-HRKCNTATCATQRLANFLHHSSNNFGPILPPTNVGSNTY-NH2; disulfide 4-9) | 0.1 | 31
CC[C@H](C)[C@H](NC(=O)[C@@H]1CCCN1C(=O)CNC(=O)[C@H](Cc1ccccc1)NC(=O)[C@H](CC(N)=O)NC(=O)[C@H](CC(N)=O)NC(=O)[C@H](CO)NC(=O)[C@H](CO)NC(=O)[C@H](Cc1c[nH]cn1)NC(=O)[C@H](CCCNC(=N)N)NC(=O)[C@H](CC(C)C)NC(=O)[C@H](Cc1ccccc1)NC(=O)[C@H](CC(N)=O)NC(=O)[C@H](C)NC(=O)[C@H](CC(C)C)NC(=O)[C@H](CCCNC(=N)N)NC(=O)[C@H](CCC(N)=O)NC(=O)[C@@H](NC(=O)[C@H](C)NC(=O)[C@@H]1CSSC[C@H](NC(=O)[C@H](CCCCN)NC(=O)[C@H](CCCNC(=N)N)NC(=O)COCCOCCNC(=O)CC[C@H](NC(=O)CCCCCCCCCCCCCCCCCCC(=O)O)C(=O)O)C(=O)N[C@@H](CC(N)=O)C(=O)N[C@@H]([C@@H](C)O)C(=O)N[C@@H](C)C(=O)N[C@@H]([C@@H](C)O)C(=O)N1)[C@@H](C)O)C(=O)N[C@@H](CC(C)C)C(=O)N1CCC[C@H]1C(=O)N1CCC[C@H]1C(=O)N[C@H](C(=O)N[C@@H](CC(N)=O)C(=O)N[C@H](C(=O)NCC(=O)N[C@@H](CO)C(=O)N[C@@H](CC(N)=O)C(=O)N[C@H](C(=O)N[C@@H](Cc1ccc(O)cc1)C(N)=O)[C@@H](C)O)C(C)C)[C@@H](C)O [Example 23, N-alpha-[2-(2-{2-[4-(S)-Carboxy-4-(19-carboxynonadecanoylamino)butyrylamino]ethoxy}ethoxy)acetyl]-Arg-[Arg17]-pramlintide] ({C20 diacid-γGlu-AEEA}-RKCNTATCATQRLANFLRHSSNNFGPILPPTNVGSNTY-NH2; disulfide 3-8) | 0.1 | 53
CC[C@H](C)[C@H](NC(=O)[C@@H]1CCCN1C(=O)CNC(=O)[C@H](Cc1ccccc1)NC(=O)[C@H](CC(N)=O)NC(=O)[C@H](CC(N)=O)NC(=O)[C@H](CO)NC(=O)[C@H](CO)NC(=O)[C@H](Cc1c[nH]cn1)NC(=O)[C@H](CCCNC(=N)N)NC(=O)[C@H](CC(C)C)NC(=O)[C@H](Cc1ccccc1)NC(=O)[C@H](CC(N)=O)NC(=O)[C@H](C)NC(=O)[C@H](CC(C)C)NC(=O)[C@H](CCCNC(=N)N)NC(=O)[C@H](CCC(N)=O)NC(=O)[C@@H](NC(=O)[C@H](C)NC(=O)[C@@H]1CSSC[C@H](NC(=O)[C@H](Cc2c[nH]cn2)NC(=O)[C@H](Cc2c[nH]cn2)NC(=O)CC[C@H](NC(=O)CCCCCCCCCCCCCCCCCCC(=O)O)C(=O)O)C(=O)N[C@@H](CC(N)=O)C(=O)N[C@@H]([C@@H](C)O)C(=O)N[C@@H](C)C(=O)N[C@@H]([C@@H](C)O)C(=O)N1)[C@@H](C)O)C(=O)N[C@@H](CC(C)C)C(=O)N1CCC[C@H]1C(=O)N1CCC[C@H]1C(=O)N[C@H](C(=O)N[C@@H](CC(N)=O)C(=O)N[C@H](C(=O)NCC(=O)N[C@@H](CO)C(=O)N[C@@H](CC(N)=O)C(=O)N[C@H](C(=O)N[C@@H](Cc1ccc(O)cc1)C(N)=O)[C@@H](C)O)C(C)C)[C@@H](C)O [Example 35, N-alpha-[(S)-4-Carboxy-4-(19-carboxynonadecanoylamino)butyryl]-His-[His1,Arg17]-pramlintide] ({C20 diacid-γGlu}-HHCNTATCATQRLANFLRHSSNNFGPILPPTNVGSNTY-NH2; disulfide 3-8) | 0.1 | 
